Test results as given in patent US20180028681A1, “COMBINATION THERAPY USING A CD19-ADC AND VINCRISTINE” (SEATTLE GENETICS, INC., priority 2015, published 2018).

Columns and labels:
Type in all cases: in vivo, mouse
[1] = test system: NALM-6; conditions: C.B-17 SCID mice; treatment 7 days post implant; SGN-CD19A single dose 1.0 mg/kg; cyclophosphamide 30, vincristine 0.375, doxorubicin 2.475 mg/kg single iv; dexamethasone 15 mg/kg ip daily x5; survivors sacrificed at 133 days
Protocol: (§1) Establishment of cell line xenografts: NALM-6 (DSMZ, Braunschweig, Germany) and RS4; 11 (ATCC, Manassas, Va.) cell lines were cultured in RPMI 1640 media, supplemented with Heat Inactivated Fetal Bovine serum (10%) and Penicillin/Streptomycin(1%) (Gibco, Grand Island, N.Y.). Cells were maintained in a humidified atmosphere at 37° C. and 5% CO2. For NALM-6 cell implantation, 1.0×10^5 cells in 200 ul PBS were injected into the tail vein of female C.B-17 SCID (Harlan Laboratories, Livermore, Calif.) mice. Mice were randomly assigned to treatment groups and treatment was given seven days post cell implant. For RS4; 11 cell implantation, 1.8×10^6 cells in 200 ul PBS were implanted into the tail vein of female C.B-17 SCID mice. Mice were randomly assigned to treatment groups. Treatment was given one day post cell implant. Treatment in the NALM-6 consisted of a single dose of SGN-CD19A at 1.0 mg/kg; in RS4; 11, SGN-CD19A was given once every four days for four doses at 0.3 mg/kg. Cyclophosphamide, 30 mg/kg (Baxter, Deefield, Ill.), Vincristine, 0.375 mg/kg (Hospira, Lake Forest, Ill.), and Doxorubicin, 2.475 mg/kg (Pfizer, NY, NY) were combined and administered as a single dose via intravenous injection into the lateral tail vein. Dexamethasone, 15 mg/kg (APP Pharmaceuticals, Schaumberg, Ill.), was given daily for five days via intraperitoneal injection. For each xenograft model, mice were monitored daily and body weights were collected at least once per week. Mice were removed from experiment at the onset of clinical disease signs (hind limb weakness, piloerection, hunched posture) or weight loss in excess of 20% of initial body weight.
(§2) Cell line-derived xenografts were used to investigate the median survival time for the combination of SGN-CD19A and CVAD, as well as SGN-CD19A and each of the components of CVAD. Either NALM-6 or Rs4; 11 cells were implanted into CB-17 SCID mice. Ten mice were assigned to each treatment group. […] SGN-CD19A and CVAD were administered at sub-optimal doses. Results are shown in FIGS. 4A and 4B and Tables 1 and 2. […] For the Rs4; 11 experiment, the experiment was terminated on day 154.

[2] = test system: RS4; 11; conditions: C.B-17 SCID mice; treatment 1 day post implant; SGN-CD19A 0.3 mg/kg every four days x4; cyclophosphamide 30, vincristine 0.375, doxorubicin 2.475 mg/kg single iv; dexamethasone 15 mg/kg ip daily x5; terminated day 154
Protocol: as §1, §2

[3] = test system: ALL patient donor 90811 xenograft; assay: Disease burden (blast cells) in bone marrow, patient-derived ALL xenograft donor 90811; conditions: for Disease Burden in Bone Marrow, CD45/10% Mean: NOD-scid IL2Rγ null mice, dosed at 18% blasts in sentinels, bone marrow counts day 10 post-dose
Text: Establishment of patient-derived xenografts: NOD-scid IL2Rγ null mice were used as hosts for patient-derived xenografts. Twenty-four hours prior to cell implant, mice received 1.0 Gy irradiation using a Radsource 2000 irradiator (Radsource technologies, Suwanee, Ga.). Frozen bone marrow isolates of mononuclear cells from patients with acute lymphoblastic leukemia were obtained from […] (Alameda, Calif.). Cells were thawed in a warm water bath. After thaw, RPMI-1640 media was slowly added to the bone marrow isolate suspension. The cells were washed with PBS and centrifuged to remove DMSO in freezing media. After centrifugation, the cells were suspended in PBS. For, implantation, 3.6×10^6 cells were injected into the tail vein of female NOD-scid IL2Rγ null mice designated as donor, or passage 0 mice. Approximately 7 weeks after implant, mice were euthanized. Bone marrow and spleen were collected using sterile technique. Spleens were mechanically disrupted using a sterile syringe end and mesh filter. Connective tissues from spleens were filtered out using 40um filters. Splenocytes and bone marrow cells were treated with red blood cell buffer lysis (BD lysis buffer, BD biosciences, San Jose, Calif.) for 15 minutes at room temperature. A sample of the cells was utilized for confirmation of engraftment. The percentage of blast cells was determined by the number of CD45 FITC, CD19 PE-Cy.5 (BD Biosciences, San Jose, Calif.) CD10 APC (Biolegend, San Diego, Calif.) triple positive cells via flow cytometry (FACScalibur, BD Biosciences, San Jose, Calif.). The majority of the cells (passage 1) were placed into freezing media (90% Heat inactivated fetal bovine serum and 10% DMSO). Subsequent xenograft experiments utilized passage 1 cells. Cells were implanted in the same manner done for donor mice (passage 0 mice). Starting 14-21 days post implant, 2-3 sentinel mice were euthanized to determine the percentage blast cells in the bone marrow. […] SGN-CD19A and non-specific ADC (also called h00-1269) were administered as a single intraperitoneal injection at 1.0, 3.0, or 10.0 mg/kg dose. Cyclophosphamide at 15 or 30 mg/kg (Baxter, Deefield, Ill.), Vincristine at 0.188 or 0.375 mg/kg (Hospira, Lake Forest, Ill.), and Doxorubicin at 1.24 or 2.475 mg/kg (Pfizer, NY, NY) were combined and administered as a single dose via intravenous injection into the lateral tail vein. Dexamethasone at 7.5 or 15 mg/kg (APP Pharmaceuticals, Schaumberg, Ill.) was given daily via intraperitoneal injection for five days. At pre-determined times post treatment, mice were euthanized for collection of bone marrow and determination of blast cell percentage via flow cytometry.
The response of human patient-derived ALL cells to single agent SGN-CD19A or CVAD was determined in mouse xenograft models. Bone marrow isolates from patients with ALL (donor 06343 and donor 90811) were used to establish xenografts in NOD-scid IL2Rgamma^null mice. After engraftment, patient-derived bone marrow cells were frozen and are referred to as passage 1 cells. Passage 1 cells were implanted into mice and assessed for presence of blast cells (CD45/CD10/CD19 positive cells). […] Mice were given either 1, 3, or 10 mg/kg of SGN-CD19A or 10 mg/kg of a non-specific ADC conjugated to MMAF (also called h00-1269). A maximum tolerated dose (MTD) of CVAD had previously been determined in the same mouse strain. Mice were given either CVAD at the MTD or at 50% of the MTD.
The response of human patient-derived ALL cells to the combination of SGN-CD19A and CVAD was also determined in the mouse xenograft model. Patient samples were engrafted as described above.

Molecule	Median Survival [1] [days]	Median Survival [2] [days]	Disease Burden in Bone Marrow, CD45/10% Mean [3] [%]	single agent dose response, blast cells in the bone marrow ([3]; SGN-CD19A 1, 3 or 10 mg/kg, CVAD at MTD or 50% of MTD, FIGS. 2B, 2D)
O=P1(N(CCCl)CCCl)NCCCO1 (stereo not shown) [Cyclophosphamide]	38	58	94.4	–
C[C@@H]1C[C@H]2[C@@H]3CCC4=CC(=O)C=C[C@]4(C)[C@@]3(F)[C@@H](O)C[C@]2(C)[C@@]1(O)C(=O)CO [Dexamethasone]	39	80	91.8	–
COc1cccc2c1C(=O)c1c(O)c3c(c(O)c1C2=O)C[C@@](O)(C(=O)CO)C[C@@H]3O[C@H]1C[C@H](N)[C@H](O)[C@H](C)O1 [Doxorubicin]	44	62	86.7	–
CC[C@]1(O)C[C@H]2CN(CCc3c([nH]c4ccccc34)[C@@](C(=O)OC)(c3cc4c(cc3OC)N(C=O)[C@H]3[C@@](O)(C(=O)OC)[C@H](OC(C)=O)[C@]5(CC)C=CCN6CC[C@]43[C@@H]65)C2)C1 [Vincristine]	47	79	32.2	–
SGN-CD19A: CD19-directed antibody-drug conjugate: humanized antibody hBU12, maleimidocaproyl linker, monomethyl auristatin F (MMAF); average four drugs per antibody (conjugate) VL: EIVLTQSPATLSLSPGERATLSCSASSSVSYMHWYQQKPGQAPRLLIYDTSKLASGIPARFSGSGSGTDFTLTISSLEPEDVAVYYCFQGSVYPFTFGQGTKLEIKR VH: QVQLQESGPGLVKPSQTLSLTCTVSGGSISTSGMGVGWIRQHPGKGLEWIGHIWWDDDKRYNPALKSRVTISVDTSKNQFSLKLSSVTAADTAVYYCARMELWSYYFDYWGQGTLVTVSS	55	85	18.2	decreasing amounts of blast cells in the bone marrow
